Laboratory results reported in patent US20250171459A1, “2-METHYL-4',5'-DIHYDROSPIRO[PIPERIDINE-4,7'-THIENO[2,3-C]PYRAN] DERIVATIVES AS INHIBITORS OF APOL1 AND METHODS OF USING SAME” (Vertex Pharmaceuticals Incorporated, priority 2022, published 2025).

target: T1, APOL1 (Homo sapiens, UniProt O14791); assay: MultiTox-Fluor Multiplex Cytotoxicity Assay in tet-inducible APOL1 T-REx-HEK293 cells (cell rescue, ratio of dead to live cells); assay type: cell-based; conditions: tet-inducible transgenic APOL1 T-REx-HEK293 cell lines, 50 ng/mL tet, 24 hours; read-out: IP50 (i.e., IC50 for cell proliferation)
T1 sequence (O14791 1-398 S342G/I384M): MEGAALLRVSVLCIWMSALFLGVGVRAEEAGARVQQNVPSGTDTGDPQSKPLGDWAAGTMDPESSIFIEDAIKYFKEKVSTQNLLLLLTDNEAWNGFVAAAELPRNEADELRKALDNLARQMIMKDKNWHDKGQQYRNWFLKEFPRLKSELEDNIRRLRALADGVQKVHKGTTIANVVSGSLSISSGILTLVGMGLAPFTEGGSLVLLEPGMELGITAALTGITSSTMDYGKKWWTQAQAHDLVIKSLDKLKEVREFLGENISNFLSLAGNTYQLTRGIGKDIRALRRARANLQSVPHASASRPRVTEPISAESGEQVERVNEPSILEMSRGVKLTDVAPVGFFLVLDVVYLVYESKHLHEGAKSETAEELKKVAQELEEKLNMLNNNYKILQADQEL
Procedure, shortened: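 T-REx-HEK293 cells with tet-inducible APOL1 were treated with compound (10 μM top, 10-point 3-fold dilution, duplicate) plus 50 ng/mL tetracycline for 24 h at 37° C, in DMEM with 2% tet-free FBS. MultiTox-Fluor protease signals gave a dead/live ratio, normalized to no tet (100% viability) and tet alone (0%).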

`CCc1cc2c(s1)CCO[C@@]21CCN(C[C@H]2C[C@@H](NC(=O)C3CCN(C(C)=O)CC3)C2)[C@@H](C)C1` [Compound 355] and `CCc1cc2c(s1)CCO[C@@]21CCN(C[C@H]2C[C@@H](NC(=O)C3CCCC(C)(C)C3)C2)[C@@H](C)C1` (stereo partly drawn) [Compound 312] cannot be ordered by IC50: under 100 nM for the first, under 100 nM for the second.

First: CCc1cc2c(s1)CCO[C@@]21CCN(CC2CN(S(=O)(=O)C3CCOCC3)C2)[C@@H](C)C1 [Compound 494]
Second: CCc1cc2c(s1)CCO[C@@]21CCN(CC2CN(C(=O)C3CCNC3=O)C2)[C@@H](C)C1 (stereo partly drawn) [Compound 484]
The IC50 of the first is higher: 100 to 500 nM for the first, under 100 nM for the second.

`CCCCC(O)C(=O)N[C@H]1C[C@@H](CN2CC[C@]3(C[C@@H]2C)OCCc2sc(CC)cc23)C1` (stereo partly drawn) [Compound 306] and `CCc1cc2c(s1)CCO[C@@]21CCN(C[C@H]2C[C@@H](NC(=O)C(O)C3CC3)C2)[C@@H](C)C1` (stereo partly drawn) [Compound 333] cannot be ordered by IC50: under 100 nM for the first, under 100 nM for the second.

`C[C@H]1C[C@@]2(CCN1CC(C)(C)O)OCCc1cc(CC(F)F)sc12` [Compound 603] and `C[C@H]1C[C@@]2(CCN1CC1(C)COC1)OCCc1cc(CC(F)F)sc12` [Compound 585] fall in the same range of IC50: 100 to 500 nM for the first, 100 to 500 nM for the second.

Compared with `CCc1cc2c(s1)CCOC21CCN(Cc2cnc(N[C@H](CC)CO)nc2)CC1` [Compound 1077], `CCc1cc2c(s1)CCO[C@@]21CCN(Cc2cnc(NC(C)(CC)CO)nc2)[C@@H](C)C1` (stereo partly drawn) [Compound 224] is lower in IC50: 100 to 500 nM for the first, under 100 nM for the second. The second is the more potent here.

`CCc1cc2c(s1)CCO[C@@]21CCN(Cc2cn(CC3(CCO)CC3)nn2)[C@@H](C)C1` [Compound 83] and `CCc1cc2c(s1)CCO[C@@]21CCN(Cc2cn(CC(C)(C)OCCO)nn2)[C@@H](C)C1` [Compound 98] fall in the same range of IC50: 100 to 500 nM for the first, 100 to 500 nM for the second.

Compared with `C[C@H]1C[C@@]2(CCN1CC1CC1(F)F)OCCc1cc(CC(F)F)sc12` (stereo partly drawn) [Compound 617], `C[C@H]1C[C@@]2(CCN1CC1(C)COC1)OCCc1cc(Cl)sc12` [Compound 676] is higher in IC50: under 100 nM for the first, 100 to 500 nM for the second. The first is the more potent here.

`COc1cncc(CN2CC[C@]3(C[C@@H]2C)OCCc2c3sc(Cl)c2CO)c1` [Compound 727] and `COCCc1ncc(CN2CC[C@]3(C[C@@H]2C)OCCc2c3sc(Cl)c2CO)cn1` [Compound 745] fall in the same range of IC50: 100 to 500 nM for the first, 100 to 500 nM for the second.

`CCc1cc2c(s1)CCO[C@@]21CCN(Cc2cnc(OCC3(N)CCCCC3)nc2)[C@@H](C)C1` [Compound 227] and `CCc1cc2c(s1)CCO[C@@]21CCN(Cc2c[nH]c(C)n2)[C@@H](C)C1` [Compound 288] cannot be ordered by IC50: under 100 nM for the first, under 100 nM for the second.

First: CCc1cc2c(s1)CCOC21CCN(Cc2ccc(N[C@H]3CC[C@H](O)CC3)nc2)CC1 [Compound 1067]
Second: CCc1cc2c(s1)CCO[C@@]21CCN(C[C@H]2C[C@@H](NC(=O)C3(c4ccc(F)cn4)CC3)C2)[C@@H](C)C1 [Compound 327]
The IC50 of the first is lower: under 100 nM for the first, 100 to 500 nM for the second.

`CCc1cc2c(s1)CCO[C@@]21CCN(C[C@H]2C[C@@H](NC(=O)OCC(C)C)C2)[C@@H](C)C1` [Compound 373] and `CCc1cc2c(s1)CCO[C@@]21CCN(C[C@H]2C[C@@H](NC(=O)OCCOC)C2)[C@@H](C)C1` [Compound 374] fall in the same range of IC50: 100 to 500 nM for the first, 100 to 500 nM for the second.

`CCc1cc2c(s1)CCO[C@@]21CCN(C[C@H]2C[C@@H](NC(=O)C3(O)CC(O)C3)C2)[C@@H](C)C1` (stereo partly drawn) [Compound 357] and `CCc1cc2c(s1)CCO[C@@]21CCN(C[C@H]2C[C@@H](NC(=O)C3CCC3(F)F)C2)[C@@H](C)C1` (stereo partly drawn) [Compound 325] cannot be ordered by IC50: under 100 nM for the first, under 100 nM for the second.

`C[C@H]1C[C@@]2(CCN1Cc1cnn(CCS(C)(=O)=O)c1)OC[C@@](O)(C(F)F)c1cc(Cl)sc12` [Compound 834] and `CO[C@]1(C(F)F)CO[C@@]2(CCN(Cc3cnn(CCS(C)(=O)=O)c3)[C@@H](C)C2)c2sc(Cl)cc21` [Compound 835] cannot be ordered by IC50: under 100 nM for the first, under 100 nM for the second.

First: CCc1cc2c(s1)CCO[C@@]21CCN(CC2CN(C(=O)C3CNC(=O)O3)C2)[C@@H](C)C1 (stereo partly drawn) [Compound 478]
Second: CCc1cc2c(s1)CCO[C@@]21CCN(CC2CN(C(=O)Cc3ccncc3)C2)[C@@H](C)C1 [Compound 438]
The IC50 of the first is higher: 100 to 500 nM for the first, under 100 nM for the second.

First: C[C@H]1C[C@@]2(CCN1Cc1cnn(CCS(C)(=O)=O)c1)OCC(O)c1c2sc(Cl)c1Cl (stereo partly drawn) [Compound 861, (2S,4R)-2′,3′-dichloro-2-methyl-1-((1-(2-(methylsulfonyl)ethyl)-1H-pyrazol-4-yl)methyl)-4′l3-spiro[piperidine-4,7′-thieno[3,2-d]pyran]-4′(5′H)-ol]
Second: C[C@H]1C[C@@]2(CCN1Cc1cnn(CCS(C)(=O)=O)c1)OCC(O)c1cc(C(F)(F)F)sc12 (single isomer, unassigned) [Compound 882]
The IC50 of the first is higher: 100 to 500 nM for the first, under 100 nM for the second. The second is the more potent here.

First: CCc1cc2c(s1)CCO[C@@]21CCN(Cc2cn(C3CS(=O)(=O)C3)nn2)[C@@H](C)C1 [Compound 29]
Second: CCc1cc2c(s1)CCO[C@]21CCN(Cc2cn(CCS(C)(=O)=O)nn2)[C@H](C)C1 [Compound 10, (2′R,4S)-2-ethyl-2′-methyl-1′-[[1-(2-methylsulfonylethyl)triazol-4-yl]methyl]spiro[6,7-dihydrothieno[3,2-c]pyran-4,4′-piperidine]]
The IC50 of the first is lower: under 100 nM for the first, 500 to 1000 nM for the second.

First: COc1cc(CN2CC[C@]3(C[C@@H]2C)OCCc2cc(Cl)sc23)ccc1OCC(N)=O [Compound 663]
Second: Cc1ncccc1CN1CC[C@]2(C[C@@H]1C)OCCc1cc(Cl)sc12 [Compound 674]
The IC50 of the first is lower: under 100 nM for the first, 500 to 1000 nM for the second. The first is the more potent here.

`C[C@H]1C[C@@]2(CCN1Cc1cnn(CC3CC4(CC4)C(=O)O3)c1)OCCc1c2sc(C(F)(F)F)c1CO` (stereo partly drawn) [Compound 981] and `CNS(=O)(=O)CCn1cc(CN2CC[C@]3(C[C@@H]2C)OCCc2c3sc(C(F)(F)F)c2CO)cn1` [Compound 916] cannot be ordered by IC50: under 100 nM for the first, under 100 nM for the second.

First: CCc1cc2c(s1)CCO[C@@]21CCN(C[C@H]2C[C@@H](NC(=O)Oc3ccccc3F)C2)[C@@H](C)C1 [Compound 372]
Second: CCc1cc2c(s1)CCO[C@@]21CCN(C[C@H]2C[C@@H](NC(=O)OCc3ccccc3Cl)C2)[C@@H](C)C1 [Compound 381]
The IC50 of the first is higher: 500 to 1000 nM for the first, 100 to 500 nM for the second. The second is the more potent here.

First: CCc1cc2c(s1)CCO[C@@]21CCN(C[C@H]2C[C@@H](NC(=O)[C@@H]3CCCO3)C2)[C@@H](C)C1 [Compound 369]
Second: CCc1cc2c(s1)CCO[C@@]21CCN(C[C@H]2C[C@@H](NC(=O)c3cc(C)no3)C2)[C@@H](C)C1 [Compound 304]
The IC50 of the first is higher: 100 to 500 nM for the first, under 100 nM for the second. The second is the more potent here.

First: Cc1cnccc1CN1CC[C@]2(C[C@@H]1C)OCCc1cc(Cl)sc12 [Compound 693]
Second: CCn1cc(CN2CC[C@]3(C[C@@H]2C)OCCc2cc(Cl)sc23)cn1 [Compound 702]
The IC50 of the first is higher: 500 to 1000 nM for the first, under 100 nM for the second. The second is the more potent here.

First: CCc1cc2c(s1)CCOC21CCN(CC2CCN(S(C)(=O)=O)CC2)CC1 [Compound 1151]
Second: CCc1cc2c(s1)CCOC21CCN(Cc2cnn(CCS(=O)(=O)N(C)C)c2)CC1 [Compound 1131]
The IC50 of the first is higher: 500 to 1000 nM for the first, 100 to 500 nM for the second.

First: CCc1cc2c(s1)CCO[C@@]21CCN(Cc2cn(CC(C)(C)C3(O)CCOCC3)nn2)[C@@H](C)C1 [Compound 111]
Second: CCc1cc2c(s1)CCO[C@@]21CCN(Cc2cn(CC3COCCO3)nn2)[C@@H](C)C1 (stereo partly drawn) [Compound 136]
The IC50 of the first is higher: 100 to 500 nM for the first, under 100 nM for the second. The second is the more potent here.

`CCc1cc2c(s1)CCO[C@]21CCN(Cc2cnn(CCS(C)(=O)=O)c2)[C@@H](C)C1` [Compound 271] and `CC(=O)N(C)C1CO[C@@]2(CCN(Cc3cnn(CCS(C)(=O)=O)c3)[C@@H](C)C2)c2sc(Cl)cc21` (stereo partly drawn) [Compound 857, N-[(2′S, 7R)-2-chloro-2′-methyl-1′-[[1-(2-methylsulfonylethyl)pyrazol-4-yl]methyl]spiro[4,5-dihydrothieno[2,3-c]pyran-7,4′-piperidine]-4-yl]-N-methyl-acetamide] cannot be ordered by IC50: under 100 nM for the first, under 100 nM for the second.

`CCc1cc2c(s1)CCO[C@@]21CCN(C[C@H]2C[C@@H](NC(=O)C(C)(O)C(F)(F)F)C2)[C@@H](C)C1` (stereo partly drawn) [Compound 370] and `CCc1cc2c(s1)CCO[C@@]21CCN(C[C@H]2C[C@@H](NC(=O)Cn3cncn3)C2)[C@@H](C)C1` [Compound 354] fall in the same range of IC50: 100 to 500 nM for the first, 100 to 500 nM for the second.

First: CCc1cc2c(s1)CCOC21CCN(Cc2cn(CCC(=O)NC)nn2)CC1 [Compound 1120]
Second: CCc1cc2c(s1)CCO[C@@]21CCN(Cc2cn(CC(O)CN3CCCC3=O)nn2)[C@@H](C)C1 (stereo partly drawn) [Compound 99]
The IC50 of the first is higher: 500 to 1000 nM for the first, under 100 nM for the second.

`COc1cnc(CN2CC[C@]3(C[C@@H]2C)OC[C@H](O)c2cc(Cl)sc23)cn1` [Compound 783] and `Cc1ccc(CN2CC[C@]3(C[C@@H]2C)OC[C@H](O)c2cc(Cl)sc23)c(C)n1` [Compound 788] fall in the same range of IC50: 100 to 500 nM for the first, 100 to 500 nM for the second.

First: C[C@H]1C[C@@]2(CCN1Cc1cnn(C)c1)OC[C@](O)(C(F)F)c1cc(Cl)sc12 [Compound 831]
Second: CCC1Cc2sc(Cl)cc2C2(CCN(Cc3cnn(C)c3)[C@@H](C)C2)O1 (stereo partly drawn) [Compound 533]
The IC50 of the first is lower: under 100 nM for the first, 500 to 1000 nM for the second.

Compared with `Clc1cc2c(s1)CCOC21CCN(Cc2cn[nH]c2)CC1` [Compound 1165, 2-chloro-1′-(1H-pyrazol-4-ylmethyl)spiro[6,7-dihydrothieno[3,2-c]pyran-4,4′-piperidine]], `Cc1cc2c(s1)CCO[C@@]21CCN(C2COCC2O)[C@@H](C)C1` (single isomer, unassigned) [Compound 500] is lower in IC50: 100 to 500 nM for the first, under 100 nM for the second.

`C[C@H]1C[C@@]2(CCN1Cc1ccc(OCC(=O)N3CCOCC3)cc1)OC[C@H](O)c1cc(Cl)sc12` [Compound 798] and `CCc1cc2c(s1)CCO[C@@]21CCN(Cc2cn(CC(O)(CC)CCCO)nn2)[C@@H](C)C1` (stereo partly drawn) [Compound 169] cannot be ordered by IC50: under 100 nM for the first, under 100 nM for the second.
